Reference: US6852715B1, “Indolocarbazole alkaloids from a marine actinomycete” (Instituto Biomar S.A., priority 1909, dated 2005)

What was measured:
Assay type in all cases: cell-based
[1] = test system: SK-MEL-28 (monolayer culture of a human melanoma); experiment: In vitro antitumor activity, SK-MEL-28 cell growth (Crystal Violet); settings: SK-MEL-28 cells, three days of incubation at 37° C., Crystal Violet staining
Procedure: (§1) The antitumor activities of IB-97224 and IB-97225 have been determined in vitro in cell cultures of mouse leukemia P-388D1, human lung carcinoma A-549, human colon carcinoma HT-29 and human melanoma SK-MEL-28. The procedure was carried out using the methodology described by Bergeron, et al. (1984), and by Schroeder, et al. (1981).
(§2) Biological activity: The antitumor cells employed have been P-388D1 (suspension culture of a lymphoid neoplasm from DBA/2 mouse), A-549 (monolayer culture of a human macrocytic lung carcinoma), HT-29 (monolayer culture of a human colon carcinoma), and SK-MEL-28 (monolayer culture of a human melanoma). P-388D1 cells were seeded into 16 mm wells at 1×10^4 cells per well in 1 ml aliquots of MEM 5FCS containing the indicated concentration of drug. A separate set of cultures without drug was seeded as control of growth to ensure that cells remained in exponential phase of growth. All determinations were carried out duplicated. After three days of incubation at 37° C. in 10% CO2 atmosphere with 98% humidity, the IC50 was calculated by comparing the growth in wells with drug with the growth in control wells without the drug. […] The IC50 was calculated by comparing the growth in wells with drug with the growth in control wells without the drug.

[2] = test system: A-549 (monolayer culture of a human macrocytic lung carcinoma); experiment: In vitro antitumor activity, A-549 cell growth (Crystal Violet); settings: A-549 cells, three days of incubation at 37° C., Crystal Violet staining
Procedure: as §1, §2

[3] = test system: P-388D1 (suspension culture of a lymphoid neoplasm from DBA/2 mouse); experiment: In vitro antitumor activity, P-388D1 cell growth; settings: P388D1 cells, three days of incubation at 37° C., growth vs control wells without drug
Procedure: as §1, §2

[4] = test system: HT-29 (monolayer culture of a human colon carcinoma); experiment: In vitro antitumor activity, HT-29 cell growth (Crystal Violet); settings: HT-29 cells, three days of incubation at 37° C., Crystal Violet staining
Procedure: as §1, §2

| Structure (SMILES) | IC50 [1] | IC50 [2] | IC50 [3] | IC50 [4] |
| --- | --- | --- | --- | --- |
| CN[C@H]1[C@H](O)[C@@H]2O[C@](C)([C@H]1OC)n1c3ccccc3c3c4c(c5c6ccccc6n2c5c31)C(=O)NC4 [IB-97225, 5′-hydroxystaurosporine] | 2 nM | 2 nM | 20 nM | 4 nM |
| CO[C@H]1[C@@H](N(C)C)[C@H](O)C2OC1(C)n1c3ccccc3c3c4c(c5c6ccccc6n2c5c31)C(=O)NC4 (some centres unmarked) [IB-97224, 4′N-methyl-5′-hydroxystaurosporine] | 4 nM | 2 nM | 40 nM | 4 nM |
